Laboratory results from patent publication US12263156B2, “Use of small molecule inhibitors of the BfrB:Bfd interaction in biofilms” (priority 2020, dated 2025).
Several values for one entry are separate records, joined by “and”; a condition that tells them apart may be missing. Equal values may be shown once.

Legend:
[1] = test system: EYFP-expressing P. aeruginosa PAO1 biofilms; experiment: Flow cell biofilm assay (CLSM imaging, COMSTAT biomass); format: cell-based, Pseudomonas aeruginosa; settings: 3-day old flow cell biofilms, 24 h treatment at 25× the MIC
Method: ACS Infect. Dis. […] The experimental shear stress was 0.14-dyn/cm^2 (shear rate=14 s^−1, pressure=7.1 mbar, flow rate=0.4 mL/min) and the switch time was set to 540 s. […] During biofilm growth and challenge with antibacterial, the culture medium in the reservoirs was removed every 12 hours and replaced with fresh pre-warmed medium. […] The biofilms were imaged with the aid of a Leica TCS SP8 confocal microscope (Leica Microsystems, Germany) using a HC PL apo CS2 63×/1.4 oil objective. […] Image stacks were acquired with a z-step size of 0.3 μm at randomly chosen positions. The Leica Application Suite X (LAS-X) software was used for image stack processing.^54 Quantitative analysis of biofilm biomass was performed using the COMSTAT computer program^54 and the Otsu method of automatic thresholding.^85
The treated biofilms were counterstained with the cell impermeable fluorescent nucleic acid dye Sytox Red and then imaged with the aid of confocal laser scanning microscopy (CLSM).

[2] = test system: P. aeruginosa; settings: reported MIC; cited from earlier work
[3] = test system: EYFP-expressing P. aeruginosa PAO1 pellicle biofilms; experiment: Pellicle biofilm assay (CLSM imaging, COMSTAT biomass); format: cell-based, Pseudomonas aeruginosa; settings: 24 h; for tolerance or susceptibility of pellicle biofilms (CLSM): 2-day old pellicles, ciprofloxacin, tobramycin 25× and 50× the MIC, colistin above 10× the MIC
Method: (§1) Pellicle biofilms of EYFP-expressing P. aeruginosa PAO1 or clinical isolates were grown in PI media supplemented with 20 μM Fe. Starter cultures were diluted to OD600=0.001 in 4 mL media, placed in 35×10 mm petri dishes and incubated statically at 30° C. for 48 hours. The pellicles were transferred onto circular (1.5 cm diameter) glass coverslips by gently allowing the surface of a coverslip to contact a pellicle. The pellicle-adhered coverslip was washed in PBS and then deposited on top of 1.5 mL of AB challenge media contained in a well of a 12-well microplate, with the pellicle exposed to the media. […] The coverslip-adhered pellicles were exposed to challenge media at 30° C. for 24 hours, changing the challenge media every 12 hours by transferring the pellicle-adhered coverslip to a new plate containing pre-warmed challenge media.
Excess fluorescent dye was washed with PBS, the coverslip was mounted on a glass slide using 5 μL of SlowFade (Invitrogen, Carlsbad, CA) and the edges sealed with fingernail polish. CLSM image stacks (z-step size of 0.3 μm) were acquired with the aid of a Leica TCS SP8 microscope, as described above. Quantitative analysis was performed by determination of pellicle biomass using COMSTAT^54 and the Otsu method of automatic thresholding.^85
To expand the observations made with flow cell biofilms into a second biofilm model, the susceptibility of biofilms grown at the air-liquid interface (pellicles) was also studied.^56-57 Pellicle biofilms (henceforth pellicles) are an attractive alternative platform to study biofilms because pellicles are amenable to imaging by CLSM and to harvesting, which can be desirable for additional biofilm analysis.^26 To determine the susceptibility of pellicles to antibiotics or inhibitors of the BfrB-Bfd complex, 2-day old pellicles of EYFP-expressing P. aeruginosa cells were cultured in PI media supplemented with 20 μM Fe. The pellicles were transferred onto glass coverslips by allowing the surface of the coverslip to contact a pellicle.

[4] = test system: EYFP-expressing P. aeruginosa PAO1 pellicle biofilms; experiment: Determination of viable cells (CFU/mL) in pellicle biofilms; settings: for % cell survival, CFU/mL(after treatment)/CFU/mL(pre-treatment): 2-day old pellicles, 24 h
Method: as §1
Pellicle biofilms were grown as described above. Planktonic and loosely attached cells were washed (3 times) by immersing the coverslip-adhered pellicles (biofilm facing up) into a well of a 12-well plate containing 3 mL of PBS, and incubating (5 min) with gentle rocking. To remove the pellicle from the coverslip, break the extracellular matrix and release cells from the biofilm, the coverslip-adhered pellicle was placed in a 50 mL conical tube containing a 2 mL suspension of zirconia beads (0.1 mm diameter, BioSpec Products), 10 mL PBS, 0.2 μg/mL alginate lyase and 0.2 μg/mL DNAse. The resultant mixture was incubated at room temperature for 3 min, followed by vigorous vortexing for 4 min. After sedimentation of the zirconia beads, a 100 μL aliquot was used for serial dilution and plating on PIA plates for subsequent enumeration of viable cells (CFU/mL).
To assess the efficacy of antibiotics and compounds with an approach complementary to imaging with CLSM, dispersing biofilm cells for subsequent enumeration of viable cells (CFU/mL) was resorted to. […] The biofilms were then harvested, and the cells dispersed into sterile PBS by vortexing in the presence of zirconia beads, prior to plating the cell suspensions for subsequent enumeration of CFU/mL. […] A characteristic of cells in the VBNC state is their inability to develop into colonies on routine culture media, even though the cells remain viable for long periods of time.^58-59 Evidence that bacterial cells can enter the VBNC has been obtained by several distinct methods,^59 one of which is the utilization of bacteria engineered to constitutively express bioluminescent proteins, and using the bioluminescence as a reporter of metabolic activity.

[5] = test system: P. aeruginosa PAO1; experiment: Half maximal inhibitory concentration (IC50) of planktonic growth, CFU/mL enumeration; format: cell-based, Pseudomonas aeruginosa; settings: for IC50: Pseudomonas aeruginosa, PAO1
Method: Chemicals were purchased from Fisher Scientific (Waltham, MA) unless otherwise stated. P. aeruginosa PAO1 was obtained from the University of Washington Genome center.^80 The PAO1 strain expressing enhanced yellow fluorescent protein (EYFP) was prepared as described in Soldano, A.; Yao, H.; Chandler, J. R.; Rivera, M. (2020) Inhibiting Iron Mobilization from Bacterioferritin in Pseudomonas aeruginosa Impairs Biofilm Formation Irrespective of Environmental Iron Availability. ACS Infect. Dis. 6, 447-458. 10.1021/acsinfecdis.9b00398.^26 Clinical isolates of P. aeruginosa were purchased from JMI Laboratories (North Liberty, IA, USA). […] Starter cultures of P. aeruginosa PAO1 in 5 mL LB media were grown for 13 hours in 50 mL conical tubes at 37° C. and 220 rpm. For biofilm experiments, a EYFP-expressing P. aeruginosa strain was routinely grown in Pseudomonas Isolation (PI) media (20 g L^−1 peptone, 0.3 g L^−1 MgCl2·6H O, 10 g L^−1 K2SO4, 25 mg L^−1 irgasan, and 20 mL L^−1 glycerol, pH 7.0). Starter cultures were grown from a single colony at 37° C. and shaking at 220 rpm for 14 hours in 5 mL PI media supplemented with 10 μM Fe. Pellicle biofilms were cultured for 48 hours at 30° C. in PI media supplemented with 20 μM Fe. Surface-attached biofilms were cultured in AB minimal media^81 supplemented with trace metals [0.15 μM (NH4)2MoO4, 3 μM CuSO4, 2 μM Co(NO3)2, 9.4 μM Na2B4O7, and 7.6 μM ZnSO4], 3 mM glucose and 15 μM Fe. Iron supplementation was carried out by addition of a small volume of filter-sterilized 10 mM (NH4)2Fe(SO4)2 (pH˜2.0) solution. […]; IC50 values (Table 1 below) were determined as reported previously^25 with small modifications. In brief: precultures of P. aeruginosa PAO1 (5 mL) were grown in LB media for 13 hours at 37° C. and 220 rpm in 50 mL conical tubes (VWR International, PA). The cells were centrifuged for 5 min at 4,000 rpm and 4° C., washed two times and then diluted in buffer (100 mM KH2PO4 and 15 mM (NH4)2SO4 to an optical density at 600 nm (OD600) of 0.1. A small volume of compound stock solution (10 mM) was transferred to a microcentrifuge tube, initially diluted with DMSO to 20 μL, and then diluted to 1 mL with preculture cell suspension in defined media with OD600=0.0001, so the final DMSO concentration is 2%. The resultant cell suspension (200 μL) was transferred to a clear-bottom polystyrene 96-well plate (VWR International, PA) covered with a lid and incubated at 35° C. and 205 cpm for 24 h in a Synergy H1 microplate reader (Biotek Instruments Inc., Winooski, VT). The cell cultures were serially diluted and then plated on PI Agar (PIA; BD Biosciences, San Jose, CA) plates for enumeration of viable cells (CFU/mL). The % growth was calculated from the ratio CFU/mL(treated)/CFU/mL(untreated control). To calculate the IC50 values, the % growth was plotted as a function of compound concentration, expressed as log[compound] (μM), and fitted to the 4-parameter logistic model describing the sigmoid-shaped response pattern (equation 1),^83 where b is the slope factor, max is the upper asymptote (plateau), and min is the lower asymptote. Values are the average and standard deviation from three independent experiments.

[6] = target: BfrB (apo-BfrB) (Pseudomonas aeruginosa (strain ATCC 15692 / DSM 22644 / CIP 104116 / JCM 14847 / LMG 12228 / 1C / PRS 101 / PAO1), UniProt Q9HY79); experiment: Fluorescence polarization measurement of dissociation constant (Kd); format: binding; settings: for Kd: 100 mM potassium phosphate buffer pH 7.6, 1 mM TCEP, 0.5% DMSO, average ± SD
Method: Values were obtained in 100 mM potassium phosphate buffer (pH 7.6) containing 1 mM TCEP and 0.5% DMSO. The initial concentrations of KM-5-25 and KM-5-66 were 5 μM. The Kd values are the average and standard deviation from three independent measurements. […] The IC50 values are the average and the standard derivations from three independent experiments.
Prior to testing the effect that the 4-substituted isoindoline-1,3-dione derivatives might exert on P. aeruginosa cells, the strength of their interaction with BfrB was evaluated in vitro with a fluorescence polarization assay developed based on the intrinsic fluorescence of the isoindoline-1,3-dione moiety.

[7] = Aqueous solubility; format: physicochemical; settings: aqueous solution
[8] = planktonic growth, 24 h, 35° C, defined media, 2% DMSO, average ± SD of three experiments

Compound: NC[C@H]1O[C@H](O[C@H]2[C@H](O)[C@@H](O[C@H]3O[C@H](CO)[C@@H](O)[C@H](N)[C@H]3O)[C@H](N)C[C@@H]2N)[C@H](N)C[C@@H]1O [tobramycin, reference compound]
- % survival (biomass remaining viable, COMSTAT) [1]: ~70%
- MIC [2]: 0.5 μg/mL and 1.07 μM
- tolerance or susceptibility of pellicle biofilms (CLSM) [3]: tolerant
- % cell survival, CFU/mL(after treatment)/CFU/mL(pre-treatment) ([4]; antibiotic at 25× the MIC): ~70%
- % cell survival, CFU/mL(after treatment)/CFU/mL(pre-treatment) ([4]; antibiotic at 50× the MIC): ~70%

Compound: O=C1NC(=O)c2c(NCc3cccc(O)c3)cccc21 [Analog 12]
- IC50 [5, 8]: > 120 µM
- Kd [6]: 21 ± 3 µM

Compound: O=C1NC(=O)c2c(NCCCc3cc(Cl)ccc3O)cccc21 [KM-5-54]
- Kd [6]: 0.22 ± 0.04 µM
- fold increase of binding affinity relative to JAG-5-6 ([6]; relative to JAG-5-6): 2 fold
- aqueous solubility (in words) [7]: poor water solubility

Compound: O=C1NC(=O)c2c(NCCCc3cc(O)cc(O)c3)cccc21 [KM-5-57]
- IC50 [5, 8]: > 200 µM
- Kd [6]: 2.5 ± 0.4 µM
- fold increase of Kd relative to 16 ([6]; relative to 16): ~1.7 fold

Compound: colistin
- % survival (biomass remaining viable, COMSTAT) [1]: ~20%
- MIC [2]: 1 μg/mL and 0.79 μM
- tolerance or susceptibility of pellicle biofilms (CLSM) [3]: susceptible
- fluorescence signal from viable cells expressing EYFP ([3]; colistin at 50× the MIC): undetectable
- % cell survival, CFU/mL(after treatment)/CFU/mL(pre-treatment) ([4]; antibiotic at 25× the MIC): ~10%
- % cell survival, CFU/mL(after treatment)/CFU/mL(pre-treatment) ([4]; antibiotic at 50× the MIC): ~1%

Compound: O=C1NC(=O)c2c(NCc3cccc(Cl)c3O)cccc21 [KM-5-30, 4-((3-Chloro-2-hydroxybenzyl)amino)isoindoline-1,3-dione]
- IC50 [5, 8]: 156 ± 30 µM
- fold larger IC50 relative to KM-5-25 ([5]; relative to KM-5-25): ~2.5 fold
- Kd [6]: 6 ± 1 µM

Compound: O=C1NC(=O)c2c(NCCCc3ccccc3O)cccc21 [KM-5-28]
- IC50 [5, 8]: 96 ± 1 µM
- Kd [6]: 1.4 ± 0.2 µM

Compound: O=C1NC(=O)c2c(NCCCc3cccc(O)c3)cccc21 [Analog 16]
- IC50 [5, 8]: 121 ± 4 µM
- Kd [6]: 1.5 ± 0.25 µM
- relative compound activity (rank order) ([4]; pellicles treated 24 h with 50 μM of each analog): KM-5-66>KM-5-25>16>11

Compound: O=C1NC(=O)c2c(NCCCc3cc(F)ccc3O)cccc21 [JAG-5-6]
- IC50 [5, 8]: 54 ± 9 µM
- fold decrease in IC50 relative to KM-5-28 ([5]; relative to KM-5-28): ~2 fold
- Kd [6]: 0.43 ± 0.07 µM
- fold lowered Kd relative to KM-5-28 ([6]; relative to KM-5-28): ~3 fold

Compound: O=C1NC(=O)c2c(NCc3c(O)cccc3Cl)cccc21 [KM-5-29, 4-((6-Chloro-2-hydroxybenzyl)amino)isoindoline-1,3-dione]
- Kd [6]: 6 ± 0.5 µM
- aqueous solubility (in words) [7]: poorly soluble in aqueous solution

Compound: Nc1cccc2c1C(=O)NC2=O [Analog 8]
- IC50 (μM) [5, 8]: Not active

Compound: O=C1NC(=O)c2c(NCc3cc(O)cc(Cl)c3)cccc21 [KM-5-50, 4-((5-Chloro-3-hydroxybenzyl)amino)isoindoline-1,3-dione]
- IC50 [5, 8]: 82 ± 16 µM
- Kd [6]: 11 ± 2 µM

Compound: O=C1NC(=O)c2c(NCc3ccccc3O)cccc21 [Analog 11]
- IC50 [5, 8]: 258 ± 23 µM

Compound: O=C(O)c1cn(C2CC2)c2cc(N3CCNCC3)c(F)cc2c1=O [ciprofloxacin]
- MIC [2]: 0.25 μg/mL and 0.75 μM

Compound: O=C1NC(=O)c2c(NCc3cc(F)ccc3O)cccc21 [JAG-5-7, 4-((5-Fluoro-2-hydroxybenzyl)amino)isoindoline-1,3-dione]
- IC50 [5, 8]: 128 ± 26 µM
- Kd [6]: 7 ± 2 µM
